From patent US9370764B2, “Compositions and particles containing cellulosic fibers and stabilized-and/or activated-urease inhibitors, as well as methods of making and using the same” (INTERNATIONAL PAPER COMPANY, priority 2007, dated 2016)

Experiment: On-shelf aging of PPDA treated pulp at room conditions
Assay type: physicochemical
Conditions: pulp treated with 400 ppm PPDA
Description: Bleached softwood pulps that were treated with 400 ppm PPDA was stored on shelf as dry pulp in ambient conditions for 18 weeks and 20 weeks. The aged pulp samples were then fluffed and tested for ammonia generation by bacteria as in Example 1.
Aging test was also conducted on-shelf in the bag at room conditions. The result was shown in Table 12, and plotted in FIG. 5 in log scale.

## NP(N)(=O)Oc1ccccc1 [PPDA, phenylphosphorodiamidate]
Stored on shelf as dry pulp in ambient conditions for 18 weeks
  PPDA remaining on the pulp (HPLC): trace amount
Stored on shelf as dry pulp in ambient conditions for 20 weeks
  PPDA remaining on the pulp (HPLC): no PPDA remaining
